# Measurements from PMC8831444 (Cancer Discovery, 2021).
# Where two headings read alike, the source gives them in different places.
# Legend:
# Assay type in all cases: cell-based
# [1] = target: T1, CDK6 (Homo sapiens, UniProt Q00534); assay: palbociclib-based degrader
# Target sequence in this assay (Q00534 whole entry): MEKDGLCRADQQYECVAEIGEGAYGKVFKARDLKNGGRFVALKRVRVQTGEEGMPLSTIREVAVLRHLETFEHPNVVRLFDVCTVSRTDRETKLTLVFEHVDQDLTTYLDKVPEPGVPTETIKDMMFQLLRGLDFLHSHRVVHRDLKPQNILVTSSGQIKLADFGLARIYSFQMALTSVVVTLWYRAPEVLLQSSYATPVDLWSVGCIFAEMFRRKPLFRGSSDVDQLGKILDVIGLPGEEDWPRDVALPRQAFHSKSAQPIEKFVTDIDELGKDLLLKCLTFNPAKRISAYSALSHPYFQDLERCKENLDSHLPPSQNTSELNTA
# [2] = target: T2, CDK4 (Homo sapiens, UniProt P11802); assay: palbociclib-based degrader
# Target sequence in this assay (P11802 2-303): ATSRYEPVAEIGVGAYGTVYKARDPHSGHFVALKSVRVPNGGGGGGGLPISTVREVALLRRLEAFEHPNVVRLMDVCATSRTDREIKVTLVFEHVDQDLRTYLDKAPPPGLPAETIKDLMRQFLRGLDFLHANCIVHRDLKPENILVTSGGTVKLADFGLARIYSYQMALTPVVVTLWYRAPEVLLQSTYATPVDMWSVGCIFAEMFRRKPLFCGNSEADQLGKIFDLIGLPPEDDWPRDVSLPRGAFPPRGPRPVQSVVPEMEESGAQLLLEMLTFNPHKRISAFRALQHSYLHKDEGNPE
# [3] = target: T2, CDK4; assay: palbociclib-based degrader; remark: listed apart in the source
# Target sequence in this assay (P40337 whole entry): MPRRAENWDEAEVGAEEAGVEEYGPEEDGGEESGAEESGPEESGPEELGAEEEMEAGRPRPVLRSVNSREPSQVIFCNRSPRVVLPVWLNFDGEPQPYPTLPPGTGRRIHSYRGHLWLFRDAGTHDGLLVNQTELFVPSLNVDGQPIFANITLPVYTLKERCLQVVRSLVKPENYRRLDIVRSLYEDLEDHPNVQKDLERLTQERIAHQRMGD
# Target sequence in this assay (P11802 2-303): as the sequence (P11802 2-303) above
# [4] = target: T1, CDK6; assay: palbociclib-based degrader; remark: listed apart in the source
# Target sequence in this assay (P40337 whole entry): as the sequence (P40337 whole entry) above
# Target sequence in this assay (Q00534 whole entry): as the sequence (Q00534 whole entry) above
# [5] = target: T2, CDK4; assay: IP-kinase assay
# Target sequence in this assay (P11802 2-303): as the sequence (P11802 2-303) above
compound,measurement,setting,value
CC(=O)c1c(C)c2cnc(Nc3ccc(N4CCN(CC5CCN(c6ccc7c(c6)C(=O)N(C6CCC(=O)NC6=O)C7=O)CC5)CC4)cn3)nc2n(C2CCCC2)c1=O (centres unmarked) [BSJ-03-096],palbociclib-based degrader; CDK6 degradation in MCF7 cells (immunoblot),[1],~ 10 nmol/L
same,palbociclib-based degrader; CDK4 degradation in MCF7 cells (immunoblot),[2],~ 10 nmol/L
CC(=O)c1c(C)c2cnc(Nc3ccc(N4CCN(CCCCC(=O)N[C@H](C(=O)N5C[C@H](O)C[C@H]5C(=O)N[C@@H](C)c5ccc(-c6scnc6C)cc5)C(C)(C)C)CC4)cn3)nc2n(C2CCCC2)c1=O [BSJ-05-017],palbociclib-based degrader; CDK4 degradation in MCF7 cells (immunoblot),[3],~ 10 nmol/L
same,palbociclib-based degrader; CDK6 degradation in MCF7 cells (immunoblot),[4],~ 10 nmol/L
CCN1CCN(Cc2ccc(Nc3ncc(F)c(-c4cc(F)c5nc(C)n(C(C)C)c5c4)n3)nc2)CC1 [abemaciclib],% reduced,[5],84 % reduced
